The source of these data is US12539284B2, “Aminoxy acid-based anti-cancer stem cell compounds and methods thereof” (Westlake University, priority 2019, dated 2026).

For test [1], the system named is HEY A8 cancer cells. As to the kind of experiment: Cell viability (CellTiter-Glo) on adherent HEY A8 cancer cells. Particulars: read-out: IC50 Cancer Cell HeyA8. The format is cell-based, human. As to the method: Cell Cultures Human ovarian carcinoma cell lines HEY A8 and SKOV3 were gifts from Professor Alice Wong's group (The University of Hong Kong). Cells were grown in Dulbecco's Modified Eagle (DMEM) medium supplemented with 10% FBS and 1% penicillin/streptomycin at 37° C. in a humidified atmosphere containing […] CO2. Isolation and culture of spheres were performed in serum-free stem-cell-selective condition as described in literature Ip etl. Oncogene 2014, 5, 9133-9149. Briefly, 1-2 weeks after plating, non-adherent spherical clusters of cells could be observed and were separated from single cells by low speed centrifugation. After 8th to 10th passages, the non-adherent spherical clusters of cells appeared as distinct spheres. Using this selection condition, HEY A8 spheres (HEY A8 SP) or SKOV3 spheres (SKOV3 SP) could be enzymatically dissociated and reformed into spheres within 3 days under stem-cell-selective condition. To allow differentiation, dissociated sphere cells were plated on tissue culture plates in medium (MCDB 105:M199=1:1) supplemented with 10% FBS and 1% PS.
HEY A8 or SKOV3 cancer Cells were plated in triplicate in 0.1 mL full medium in 96-well plates for 24 h. After that, the medium was changed to the fresh prepared medium with various concentrations of compounds. Cells were incubated for another 48 h. Then the cell viability was measured by CellTiter-Glo® Luminescent Cell Viability reagent according to the manufacture's instruction. The luminescence at 550 nm was measured using a microplate reader (SpectraMax 340PC 384, Molecular Devices).

Test [2] concerns HEY A8 CSCs. As to the kind of experiment: In vivo tumor seeding ability of pretreated HEY A8 CSCs. The note with it: CSCs pretreated 2 days in vitro, 10^6 cells injected subcutaneously in mice, 25 days. Here is the method:
In vivo tumor seeding ability of cells after treatment with compound sff-2-112 (“Example 1”) or sff-2-132 (“Example 4”) was evaluated. Taxol was used as a negative control. For this experiment, HEY A8 CSCs were pretreated with sff-2-112 (“Example 1”), sff-2-132 (“Example 4”) or Taxol for 2 days in suspension medium, respectively. Then cells were allowed to proliferate in full medium in the absence of drugs for 10 days. After that, 10^6 cells were injected into mice subcutaneously. Tumor size was measured for 25 days after injection.

In test [3] the test system is HEY A8 cells. As to the kind of experiment: Mitochondrial membrane potential (JC-1 red to green ratio). Format: cell-based, human. Particulars: for mitochondrial membrane potential, kinetic study: 10 μM added at 180 s, image interval 30 s; for mitochondrial membrane potential depolarization: treated 10 min, FIG. 8a. Here is the method:
A suspension of HEY A8 cells at the concentration of 5×10^4 cells/mL in DMEM medium were seeded into 30-mm cell culture dishes with glass bottom (MatTek). Cells were incubated at 37° C. in a humidified atmosphere containing 5% CO2 for 24 h. Medium was aspirated and cells was washed with PBS buffer twice. Then 1 mL HBSS buffer containing 2.5 μM JC-1 was added. Cells were incubated at 37° C. for 20 min before the buffer was aspirated. Cells were washed with PBS buffer twice and treated with cation transporters for 10 min. Fluorescence was monitored by confocal imaging with ZEISS LSM 780 (Red channel: λex=543 nm, Green channel: λex=488 nm). Quantitative data were obtained using the ZEN and Graph Pad Prism software packages.
The Kinetic study of this compound on the MMP in HEY A8 cells was also conducted. Compound sff-2-112 (“Example 1”) or sff-2-132 (“Example 4”) at the final concentration of 10 μM was added at 180 s. The interval for each image was 30 s. The decrease in red to green fluorescence ratio of JC-1 indicates MMP depolarization.

Test [4] has as its system HEY A8 CSCs. Description: Apoptosis, Annexin V / PI flow cytometry, CSCs. Format: cell-based, human. Particulars: 5 μM, 2 days; DMSO 4.92%. As to the method: A suspension of HEY A8 cells at the concentration of 5×10^4 cells/mL in DMEM medium were seeded into 60-mm cell culture dishes. Cells were incubated at 37° C. in a humidified atmosphere containing 5% CO2 for 24 h followed by the addition of 4 mL fresh medium or medium containing compound sff-2-112 (“Example 1”) or sff-2-132 (“Example 4”) at different concentration. Medium containing 0.1% DMSO was used as negative control. After 2 days, the medium was aspirated and cells were washed with cold PBS twice, and then stained with PI and Annexin V according to the manufacture's instruction (Dead Cell Apoptosis Kit with Annexin V Alexa Fluor™ 488 & Propidium Iodide, Thermo Fisher). Cells were analyzed by flow cytometry (BD FACS CantoII Analyzer).

The subject of test [5] is HEY A8 CSCs. Description: Immunoblotting of autophagy associated proteins P62 and LC3. Format: cell-based, human. Particulars: 24 h; CSCs at 10-fold lower concentration than cancer cells. Here is the method:
HEY A8 cancer cells and CSCs were treated with compound sff-2-112 (“Example 1”) or sff-2-132 (“Example 4”) for 24 h. Then cells were washed twice with PBS buffer and lysed for immuno-staining. The immunostaining methods were as same as it described in Example 10.

For test [6], the system named is Huh 7 cancer stem cells (CD133+). As to the kind of experiment: Cell viability (CellTiter-Glo) of sorted Huh 7 CD133+ cells. Format: cell-based. Particulars: 48 h, different doses. Here is the method:
(§1) Huh-7 cells were stained with PE-conjugated CD133 antibody (HCC cancer stem cell marker) according to the manufacturer's instructions. Then CD133^+ cells (Huh 7 cancer stem cells) and CD133− cells were sorted by flow cytometry and seeded into 96-well plate with fresh DMEM medium. After 24 h, medium was changed to fresh medium with compound sff-2-112 (“Example 1”) or sff-2-124 (“Example 3”) at different doses. After 48 h, cell viability was analyzed by CellTiter-Glo luminescent agent.

Test [7] deals with Huh 7 CD133- cells. As to the kind of experiment: Cell viability (CellTiter-Glo) of sorted Huh 7 CD133- cells. The format is cell-based. Particulars: 48 h, different doses. As to the method: as §1

Molecules are shown by their SMILES. Entries after “also recorded” stand apart in the source; their conditions may differ. Where two headings read alike, the source gives them in different places.

Turning to `O=C(NO[C@H](COCc1ccccc1)C(=O)Nc1ccccc1)c1cc(C(F)(F)F)cc(C(F)(F)F)c1` [sff-2-112], in test [1] (48 h incubation), the IC50 turned out to be 23.4 ± 2.1 µM. Besides, the “tumor-seeding ability / tumor size of pretreated cells” value in test [2] was “significant decrease in tumor-seeding ability; also recorded: significantly decreased tumor size”. Also, in test [3], the “mitochondrial membrane potential, kinetic study” value is on record as “MMP depolarized immediately” and the “mitochondrial membrane potential depolarization” value is reported as “effectively depolarize mitochondrial membrane potential (MMP) of HEY A8 cells in a dose dependent manner”. Further, the “Annexin V positive cells, CSCs” value in test [4] stood at 21.0%. For the same compound, the “LC3-II and p62 levels (autophagy suppression)” value in test [5] is “Increased levels of both LC3-II and p62 in CSCs”. Besides, the “death of Huh 7 CD133+ cells” value in test [6] is “induce the death”. In addition, the “death of Huh 7 CD133- cells” value in test [7] is “induce the death”.
Turning to `CC(C)(C)OC(=O)[C@@H](COCc1ccccc1)ONC(=O)c1cc(C(F)(F)F)cc(C(F)(F)F)c1` [sff-2-132], in test [1] (Homo sapiens, HEY A8, 48 h incubation), the IC50 came out at 52.9 ± 1.9 µM. The “tumor-seeding ability / tumor size of pretreated cells” value in test [2] is given as “significant decrease in tumor-seeding ability; also recorded: significantly decreased tumor size”. In test [3], the “mitochondrial membrane potential, kinetic study” value was “MMP depolarized immediately” and the “mitochondrial membrane potential depolarization” value is reported as “effectively depolarize mitochondrial membrane potential (MMP) of HEY A8 cells in a dose dependent manner”. In test [4], the “Annexin V positive cells, CSCs” value is 30.4%. For the same compound, the “LC3-II and p62 levels (autophagy suppression)” value in test [5] is “Increased levels of both LC3-II and p62 in CSCs”.
